Read-outs that look alike come from different tables or passages of the source. Blank lines part the entries; values can stand above or below the compound they belong to.
Experiments:
[1] = cited from earlier work
[2] = cited from earlier work; remark: listed apart in the source
[3] = In vitro dissolution assay, 900 ml 0.01 N HCl, 100 rpm, baskets apparatus; format: physicochemical
Procedure: (§1) In some embodiments, an average of no less than 80% of amoxicillin is released in 60 min at 100 rpm in a baskets apparatus (900 ml 0.01 N HCl, at 100 rpm in a baskets apparatus). In some embodiments, an average of 90%, 96%, and 97% of the amoxicillin is released in an in vitro dissolution assay at 20, 30, and 45 minutes, respectively.
as §1, with “75%” for “80%”, “rifabutin” for “amoxicillin”, “45” for “60”, “95, 97,” for “90%, 96%,”, “98%” for “97%”

clinical [4] = conditions: for concentration at 0.5 h / concentration at 1 h / concentration at 2 h / concentration at 3 h: both, human, in vivo
Procedure: A single center, randomized, single and multiple doses, open-label, 2-period, 2-sequence, crossover study was carried out on male and female volunteers.
A Phase I Open-Label, 2-Arm Crossover Study to Evaluate the Relative Bioavailability of the pharmaceutical composition, also herein as test formulation (Rifabutin/Amoxicillin/Omeprazole 12.5 mg/250 mg/10 mg) capsules given 3 times a day, every 8 hours, compared to the concomitant administration of the three drug substance components in fasted healthy volunteers (Table 13). Test formulation (Treatment-1) was analyzed in comparison to the pharmacokinetics of the reference drugs rifabutin, amoxicillin and omeprazole given concomitantly (Treatment-2) under fasting conditions.
Treatment-1: 4× Test formulation Amoxicillin, Rifabutin, Omeprazole 250 mg/12.5 mg/10 mg capsules (Test) given three times daily, in the morning, afternoon and evening, 8 hours apart, for a total daily oral dose of 3000 mg/150 mg/120 mg.
Treatment-2: 1× Mycobutin® 150 mg capsule (Reference-1)+2× Amoxicillin 500 mg capsule (Reference-2)+1× Prilosec® 40 mg delayed-release capsule (Reference-3) taken concomitantly each given three times daily, in the morning, afternoon and evening, 8 hours apart, for a total daily oral dose of 150 mg rifabutin/3000 mg amoxicillin/120 mg omeprazole.
Reference-1 Product, Dose and Mode of Administration: • Name: Mycobutin® • Dosage form/Route of administration: Capsule/Oral • Regimen: Single 150 mg dose (1×150 mg) given once in the morning, for a total daily oral dose of 150 mg.
Reference-2 Product, Dose and Mode of Administration: • Name: Amoxicillin • Dosage form/Route of administration: Capsule/Oral • Regimen: Single 1000 mg dose (2×500 mg) given three times daily, in the morning, afternoon and evening, 8 hours apart, for a total of a total daily oral dose of 3000 mg.
Reference-3 Product, Dose and Mode of Administration: • Name: Prilosec® • Dosage form/Route of administration: Delayed Release Capsule/Oral • Regimen: Single 40 mg dose (1×40 mg), given three times daily, in the morning, afternoon and evening, 8 hours apart, for a total of a total daily oral dose of 120 mg
Treatments: • Treatment-1: 4 capsules of the Test formulation was given three times daily, in the morning, afternoon and evening, 8 hours apart, for a total daily oral dose of 150 mg rifabutin/3000 mg amoxicillin/120 mg omeprazole) • Treatment-2: Reference-1 drug (Rifabutin) was given once in the morning together with 2 capsules of Reference-2 drug (amoxicillin) and 1 capsule of Reference-3 drug (Omeprazole). Each reference drug was given three times daily, in the morning, afternoon and evening, 8 hours apart, for a total daily oral dose of 150 mg rifabutin/3000 mg amoxicillin/120 mg omeprazole).
Single and multiple oral doses were administered under fasting conditions in each study period. The drug administrations were separated by a wash-out of 14 calendar days.
For each Treatment in each study period, 78 blood samples were collected on 26 occasions.
Main absorption and disposition parameters using a non-compartmental approach with a log-linear terminal phase assumption. Trapezoidal rule to estimate the area under the curve. The pharmacokinetic parameters for this study were to be Cmax, Tmax, Cmin, C24, Clast, Tlast, AUC0-24, AUC∞, Kel and T1/2el.
Statistical analysis of Tmax based on a non-parametric approach. Statistical analysis of all other pharmacokinetic parameters based on a parametric ANOVA model. […] ANOVA Model: • fixed factors: sequence, period, treatment • random factor: subject (nested within sequence) Safety: • Descriptive statistics.

[5] = Assay and related substances under accelerated conditions 40° C./75% RH; format: physicochemical
plasma proteins = conditions: cited from earlier work
[6] = cited from earlier work; remark: listed apart in the source
clinical [7] = conditions: human, in vivo, 50 mg
H. pylori = conditions: cited from earlier work
[8] = single oral 1000 mg dose of amoxicillin capsules, fasting
[9] = single oral 150 mg dose of rifabutin capsules, fasting

Compound: 25-O-desacetylrifabutin
plasma metabolite: parent area under the curve ratio ([1]; in vivo): 0.10

Compound: 31-hydroxyrifabutin
plasma metabolite: parent area under the curve ratio ([1]; in vivo): 0.07

average released in in vitro dissolution assay ([3]; 20 minutes): 90%
average released in in vitro dissolution assay ([3]; 30 minutes): 96%
average released in in vitro dissolution assay ([3]; 45 minutes): 97%
concentration at 0.5 h (clinical [4]): 2380 ng/mL
concentration at 1 h (clinical [4]): 8920 ng/mL
concentration at 2 h (clinical [4]): 14700 ng/mL
concentration at 3 h (clinical [4]): 11300 ng/mL
Related Substances, Total ([5]; T = 0): 2.21 % area
Related Substances, Total ([5]; T = 1 month, 40° C./75% RH): 3.01 % area
Compound: CC1(C)S[C@@H]2[C@H](NC(=O)[C@H](N)c3ccc(O)cc3)C(=O)N2[C@H]1C(=O)O [Amoxicillin]
T1/2el ([2]; in vivo, po, 1000 mg): 1.15 h
time to peak serum concentrations ([2]; in vivo, po): 1 to 2 h
peak serum concentrations relative to equivalent dose of oral ampicillin ([2]; in vivo): 2-2.5 times
stability in gastric acid ([2]; in vivo): stable in the presence of gastric acid
Cmax [2, 8]: 14000 ng/mL
Tmax [2, 8]: 1.65 h

concentration at 0.5 h (clinical [4]): 85.8 ng/mL
concentration at 1 h (clinical [4]): 613 ng/mL
concentration at 2 h (clinical [4]): 828 ng/mL
concentration at 3 h (clinical [4]): 466 ng/mL
Compound: COc1ccc2[nH]c([S+]([O-])Cc3ncc(C)c(OC)c3C)nc2c1 (centres unmarked) [Omeprazole]
plasma protein binding (plasma proteins): about 95%
T1/2el ([6]; in vivo, po, 40 mg): 1 h
drug absorbed from the gastrointestinal tract ([6]; in vivo, po): approximately 35%
dose excreted in the feces ([6]; in vivo): 20%
dose recovered as urinary metabolites ([6]; in vivo): 80%
time to completion of absorption ([6]; in vivo): ≤ 4 h
average half-life of the terminal phase ([6]; plasma concentration-time curve): approximately 40 minutes
Tmax ([6]; single oral 40 mg dose of omeprazole delayed-release capsules, fasting): 1.75 h

Compound: CO[C@H]1/C=C/O[C@@]2(C)Oc3c(C)c(O)c4c(c3C2=O)C2=NC3(CCN(CC(C)C)CC3)NC2=C(NC(=O)/C(C)=C\C=C\[C@H](C)[C@H](O)[C@@H](C)[C@@H](O)[C@@H](C)[C@H](OC(C)=O)[C@@H]1C)C4=O [Rifabutin]
Cmax (clinical [7]): ~63 ng/mL
mean systemic clearance ([1]; healthy adult volunteers, single oral dose): 0.69 (±0.32) L/hour/kg
Cmax ([1]; in vivo, po, 150 mg): 188 ng/mL
dose absorbed ([1]; in vivo, po): at least 53%
time to peak plasma concentrations ([1]; in vivo, po): 2 to 4 h
contribution of renal and of biliary excretion of unchanged drug to systemic clearance ([1]; in vivo): approximately 5%
decrease of AUC following multiple dosing ([1]; in vivo): 38%
steady-state trough levels (Cp, Cminss, 24-hour post dose) ([1]; in vivo): 50 to 65 ng/mL
initial half-life ([1]; plasma elimination, biphasic): approximately 4 hours
T1/2el [1, 9]: 40 h
Tmax [1, 9]: 3 h
bound to plasma proteins (plasma proteins; concentration range of 50 to 1000 ng/ml): About 85%
mean rate of H. pylori resistance (H. pylori; in general): 1.3%
mean rate of H. pylori resistance (H. pylori; patients naïve to H. pylori eradication treatment): 0.6%
average released in in vitro dissolution assay ([3]; 20 minutes): 95%
average released in in vitro dissolution assay ([3]; 30 minutes): 97%
average released in in vitro dissolution assay ([3]; 45 minutes): 98%
extent of absorption of rifabutin, single 150 mg capsule relative to test formulation tid (clinical [4]; 150 mg rifabutin over 24 hours in both treatments): 1.5 times
concentration at 0.5 h (clinical [4]): 5.52 ng/mL
concentration at 1 h (clinical [4]): 28.1 ng/mL
concentration at 2 h (clinical [4]): 66.1 ng/mL
concentration at 3 h (clinical [4]): 72.5 ng/mL
Related Substances, Total ([5]; T = 0): 1.13 % area
Related Substances, Total ([5]; T = 1 month, 40° C./75% RH): 2.11 % area

From patent US11931463B2, “All-in-one fixed-dose combination for treating Helicobacter pylori infection” (RedHill Biopharma Ltd., priority 2013, dated 2024)
